Drawing on patent publication US4743585A (Warner-Lambert Company, priority 1986, dated 1988), this text covers IC50 for 20 molecules.

SMILES strings stand for the structures.

For the assay, the target named is T1, renin (Homo sapiens, UniProt P00797).
T1 sequence (P00797 67-406): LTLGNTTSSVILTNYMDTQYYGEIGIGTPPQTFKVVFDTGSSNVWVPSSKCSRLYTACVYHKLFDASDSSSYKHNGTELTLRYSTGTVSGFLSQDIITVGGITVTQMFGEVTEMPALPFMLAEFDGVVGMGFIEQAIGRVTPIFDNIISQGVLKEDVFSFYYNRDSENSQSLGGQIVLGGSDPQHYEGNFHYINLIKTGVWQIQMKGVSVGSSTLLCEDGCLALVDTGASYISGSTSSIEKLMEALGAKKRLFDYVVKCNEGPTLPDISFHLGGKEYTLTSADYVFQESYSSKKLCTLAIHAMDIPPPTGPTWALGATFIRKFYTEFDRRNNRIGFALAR
Put plainly: in vitro renin inhibitory activity, standard radioimmunoassay for angiotensin I. In kind it is biochemical. The protocol: The effectiveness of the aforementioned compounds is determined by a test for in vitro renin inhibitory activity. This activity is determined by a standard radioimmunoassay for angiotensin I. In this assay the enzyme, renin, incubated for two hours at 37° in the presence of a substrate, angiotensinogen, generates the product, angiotensin I. Test compounds are added to the incubation mixture.
As for `Cc1c(C)c(C)c(C[C@H](CN[C@@H](Cc2c[nH]cn2)C(=O)N[C@@H](CC(C)C)[C@@H](O)CC(=O)N[C@@H](CC(C)C)C(=O)NC2CCN(Cc3ccccc3)CC2)NC(=O)OC(C)(C)C)c(C)c1C` [Example 61], the IC50 is 30 µM.

`CC(C)CC(COC(C(=O)NC(CC(C)C)C(O)CC(=O)NC(C)C(=O)NC(CC(C)C)C(O)CC(=O)NCc1ccccc1)c1ccccc1)NC(=O)OC(C)(C)C` (centres unmarked) [Example 75, 10,18-dihydroxy-14-methyl-3,9,17-tris-(2-methylpropyl)-7,12,15,20-tetraoxo-6,22-diphenyl-5-oxa-2,8,13,16,21-pentaazadocosanoic acid, 1,1-dimethylethyl ester] registered an IC50 of 20 µM.

Molecule `CCC(C)CNC(=O)/C=C/C(O)[C@H](Cc1ccccc1)NC(=O)[C@H](Cc1c[nH]cn1)NC(=O)[C@H](Cc1ccccc1)NC(=O)OC(C)(C)C` (some centres unmarked) [Example 84, BOC-PHE-HIS-PHE[CHOHCH=CHCO]NHCH2 CH(CH3)CH2 CH3] came in with an IC50 of 1.4 µM.

`CC(C)C[C@@H](CN(Cc1ccccc1)C(=O)OCc1ccccc1)NC(=O)C[C@H](O)[C@H](CC(C)C)NC(=O)[C@@H](NC(=O)[C@H](Cc1ccccc1)NC(=O)OC(C)(C)C)C(C)C` [Example 56, l-valinamide.N-[(1,1-dimethylethoxy)carbonyl]-L-phenylalanyl-N-[2-hydroxy-4-[[3-methyl-1-[[[(phenylmethoxy)carbonyl](phenylmethyl)amino]methyl]butyl]amino]-1-(2-methylpropyl)-4-oxobutyl]-, [2S-[1R*,2R*,4R*)]]-] returned an IC50 of 16 µM.

The molecule `CC(C)C[C@H](NC(=O)C[C@H](O)[C@H](CC(C)C)NC(=O)C/C=C/[C@H](Cc1c[nH]c2ccccc12)NC(=O)OC(C)(C)C)C(=O)NCc1ccccc1` [Example 7, [4S-(4R*,8R*,9R*,13E,15R*)]-8-hydroxy-15-(1H-indol-3-ylmethyl)-4,9-bis(2-methylpropyl)-3,6,11-trioxo-1-phenyl-2,5,10-16-tetraazaheptadec-13-en-17-oic acid, 1,1-dimethylethyl ester] yielded a half-maximal inhibitory concentration (IC50) of 20 µM.

`CC(C)CC(=O)N[C@@H](Cc1ccccc1)C(=O)N[C@@H](Cc1c[nH]cn1)C(=O)N[C@@H](CC1CCCCC1)C(O)CCC(=O)N[C@@H](CC(C)C)C(=O)NCc1cccc(CN)c1` (some centres unmarked) [Example 82] yielded an IC50 of 0.12 µM.

Molecule `CC(C)CC(NC(=O)CCC(=O)C(Cc1ccccc1)NC(=O)c1ccccc1)C(O)CC(=O)NC(C)C(=O)NC(CC(C)C)C(O)CC(=O)NCc1ccccc1` (centres unmarked) [Example 48] gave a half-inhibitory concentration (IC50) of 30 µM.

`CC(C)C[C@H](NC(=O)C[C@H](O)[C@H](CC1CCCCC1)NC(=O)CC1OC1[C@H](Cc1ccccc1)NC(=O)OC(C)(C)C)C(=O)NCc1cccc(CNC(=O)OCc2ccccc2)c1` (some centres unmarked) [Example 13]: the 50% inhibitory concentration (IC50) came to 2.6 µM.

For `CC(C)C[C@H](NC(=O)C[C@H](O)[C@H](CC(C)C)NC(=O)C(Cc1c[nH]cn1)CC(O)[C@H](Cc1ccccc1)NC(=O)OC(C)(C)C)C(=O)NCc1ccccc1` (single isomer, unassigned) [Example 30, BOC-PHE[CHOHCH2 ]HIS-STA-LEU-NHCH2 Ph], it took 30 µM to reach half-maximal inhibition (IC50).

On to `CC(C)CC(CC(=O)[C@H](CC1CCCCC1)NC(=O)OC(C)(C)C)C(=O)N[C@@H](CC(C)C)[C@@H](O)CC(=O)N[C@@H](CC(C)C)C(=O)NCc1ccccc1` (some centres unmarked) [Example 51], for which the 50% inhibitory concentration (IC50) amounted to 26 µM.

`CC(C)CC(=O)NC(CSC(Cc1ccccc1)C(=O)NC(CC(C)C)C(O)CC(=O)NC(CC(C)C)C(=O)NCc1ccccc1)Cc1ccccc1` (centres unmarked) [Example 39, 6-hydroxy-17-methyl-2,7-bis(2-methylpropyl)-4,9,15-trioxo-N,10,13-tris(phenylmethyl)-11-thia-3,8,14-triazaoctadecanamide]: half-maximal inhibition (IC50) was put at 30 µM.

`CC(C)CC(NC(=O)CC(O)C(CC(C)C)NC(=O)/C=C/C(O)C(Cc1ccccc1)NC(=O)OC(C)(C)C)C(=O)NCc1ccccc1` (centres unmarked) [Example 19, (E)-8,14-dihydroxy-4,9-bis(2-methylpropyl)-3,6,11-trioxo-1-phenyl-15-(phenylmethyl)-2,5,10,16-tetraazaheptadec-12-en-17-oic acid, 1,1-dimethylethyl ester] registered a 50% inhibitory concentration (IC50) of 2.1 µM.

In the case of `CCOC(=O)C[C@H](O)[C@H](CC(C)C)NC(=O)[C@@H](NC[C@@H](NC(=O)CC(C)C)C(C)C)C(C)C` [Example 53, Heptanoic acid, 3-hydroxy-6-methyl-4-[[3-methyl-2-[[3-methyl-2-[(3-methyl-1-oxobutyl)amino]butyl]amino]-1-oxobutyl]amino]-, ethyl ester, [3S-[3R*,- 4R*[R*[R*[(R*)]]]]-], half-maximal inhibition (IC50) required 28 µM.

Molecule `CC(C)CC(NC(=O)CC(O)C(CC(C)C)NC(=O)C(Cc1ccccc1)SCC(Cc1ccccc1)NC(=O)CCCC(=O)O)C(=O)NCc1ccccc1` (centres unmarked) [Example 44, 8-hydroxy-4,9-bis(2-methylpropyl)-3,6,11,17-tetraoxo-1-phenyl-12,15-bis(phenylmethyl)-13-thia-2,5,10,16-tetraazaheneicosan-21-oic acid] came in with an IC50 of 30 µM.

On to `CC(C)C[C@H](NC(=O)C[C@H](O)[C@H](CC1CCCCC1)NC(=O)CCC(O)[C@H](Cc1ccccc1)NC(=O)OC(C)(C)C)C(=O)NCc1cccc(CN)c1` (some centres unmarked) [Example 24], for which the concentration for half-maximal inhibition (IC50) came out at 0.022 µM.

Regarding `CC(C)CC(=O)N[C@@H](Cc1ccccc1)C(=O)N[C@@H](Cc1c[nH]cn1)C(=O)N[C@H](CN[C@@H](CC(C)C)C(=O)NCc1ccccc1)CC(C)C` [Example 65, L-histidinamide, N-(3-methyl-1-oxobutyl)-L-phenylalanyl-N-[3-methyl-1-[[[3-methyl-1-[[(phenylmethyl)amino]carbonyl]butyl]amino]methyl]butyl], [S-(R*,R*)]], the IC50 turned out to be 7.7 µM. Against the preceding molecule, the IC50 is about 350-fold higher.

With `CC(C)CC(=O)NC(Cc1ccccc1)CS(=O)(=O)C(Cc1ccccc1)C(=O)NC(CC(C)C)C(O)CC(=O)NC(C)C(=O)NC(CC(C)C)C(O)CC(=O)NCc1ccccc1` (centres unmarked) [Example 38, 13,21-dihydroxy-2,17-dimethyl-12,20-bis(2-methylpropyl)-4,10,15,18-tetraoxo-N,6,9-tris(phenylmethyl)-8-thia-5,11,16,19-tetraazatricosan-23-amide-8,8-dioxide], 1.5 µM corresponded to half-maximal inhibition (IC50).

On to `CC(C)CC(NC(=O)CC(O)C(CC(C)C)NC(=O)CC(O)C(O)C(Cc1c[nH]c2ccccc12)NC(=O)OC(C)(C)C)C(=O)NCc1ccccc1` (centres unmarked) [Example 18, 8,13,14-trihydroxy-15-(1H-indol-3-ylmethyl)-4,9-bis-(2-methylpropyl)-3,6,11-trioxo-1-phenyl-2,5,10,16-tetraazaheptadecan-17-oic acid, 1,1-dimethylethyl ester], for which the midpoint of inhibition, the IC50, lay at 2.3 µM.

The molecule `CC(C)CC(=O)N[C@@H](Cc1ccccc1)C(=O)N[C@@H](Cc1c[nH]cn1)C(=O)NC(CC(C)C)C(O)CC(CC(C)C)C(=O)NCc1ccccc1` (stereo partly drawn) [Example 76, L-Histidinamide, N-(3-methyl-1-oxobutyl)-L-phenylalanyl-N-[2-hydroxy-6-methyl-1-(2-methylpropyl)-4-[[(phenylmethyl)amino]carbonyl]heptyl]] had a half-maximal inhibitory concentration (IC50) of 0.74 µM.

`CC(C)C[C@H](NC(=O)C[C@H](O)[C@H](CC1CCCCC1)NC(=O)/C=C/C(O)[C@H](Cc1ccccc1)NC(=O)OC(C)(C)C)C(=O)NCc1cccc(CNC(=O)OCc2ccccc2)c1` (some centres unmarked) [Example 21] yielded an IC50 of 0.47 µM.
